Experimental data as given in patent US8987256B2, “Oxo-heterocyclic substituted carboxylic acid derivatives and the use thereof” (Bayer Intellectual Property GmbH, priority 2008, dated 2015).

Tests used:
[1] = molecular target: T1, soluble guanylate cyclase (sGC) (Rattus norvegicus, UniProt P20595); assay: Activating action at the sGC enzyme in vitro (PPi detection, luciferase); format: biochemical; details: for EC50: read-out: EC50 (concentration at 50% of maximum efficacy), activating action at the sGC enzyme
T1 construct: made in house; host or cells: baculovirus/Sf9 insect cells
T1 sequence (P20595 1-619): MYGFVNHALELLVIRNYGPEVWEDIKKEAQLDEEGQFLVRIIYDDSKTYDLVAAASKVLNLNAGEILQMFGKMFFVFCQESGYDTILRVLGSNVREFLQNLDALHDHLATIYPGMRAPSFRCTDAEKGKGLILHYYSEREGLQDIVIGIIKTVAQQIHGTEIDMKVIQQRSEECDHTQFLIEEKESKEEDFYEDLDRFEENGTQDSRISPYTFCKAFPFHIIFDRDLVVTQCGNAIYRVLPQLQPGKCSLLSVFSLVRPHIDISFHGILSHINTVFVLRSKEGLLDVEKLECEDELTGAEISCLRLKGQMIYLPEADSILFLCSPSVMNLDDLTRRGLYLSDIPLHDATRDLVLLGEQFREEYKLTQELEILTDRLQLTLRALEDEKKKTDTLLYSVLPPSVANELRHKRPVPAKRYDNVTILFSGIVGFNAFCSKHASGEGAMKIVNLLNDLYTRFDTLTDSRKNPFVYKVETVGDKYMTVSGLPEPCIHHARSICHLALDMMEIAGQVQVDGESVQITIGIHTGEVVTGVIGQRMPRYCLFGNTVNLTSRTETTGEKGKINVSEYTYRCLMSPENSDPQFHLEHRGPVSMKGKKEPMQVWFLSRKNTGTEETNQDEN
T1 sequence (P19686 1-690 partner): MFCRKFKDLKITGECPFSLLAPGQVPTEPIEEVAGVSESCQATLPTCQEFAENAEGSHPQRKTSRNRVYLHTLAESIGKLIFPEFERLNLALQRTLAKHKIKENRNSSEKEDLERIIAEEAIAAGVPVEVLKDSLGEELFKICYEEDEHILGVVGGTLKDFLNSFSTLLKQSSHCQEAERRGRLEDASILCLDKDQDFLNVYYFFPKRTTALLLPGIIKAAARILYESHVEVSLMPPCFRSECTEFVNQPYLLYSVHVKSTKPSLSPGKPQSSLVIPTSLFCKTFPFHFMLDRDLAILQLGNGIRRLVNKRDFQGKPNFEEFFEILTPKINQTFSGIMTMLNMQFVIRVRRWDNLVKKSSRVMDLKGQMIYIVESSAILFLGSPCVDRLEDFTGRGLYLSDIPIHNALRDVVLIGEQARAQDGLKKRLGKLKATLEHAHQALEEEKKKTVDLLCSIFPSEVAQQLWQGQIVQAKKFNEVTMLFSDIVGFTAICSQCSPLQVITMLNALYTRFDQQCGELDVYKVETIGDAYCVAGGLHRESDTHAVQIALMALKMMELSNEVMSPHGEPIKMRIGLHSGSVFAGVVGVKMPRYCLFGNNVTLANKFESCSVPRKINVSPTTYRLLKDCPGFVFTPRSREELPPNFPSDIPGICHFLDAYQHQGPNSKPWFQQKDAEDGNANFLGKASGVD
Experimental: Soluble guanylate cyclase (sGC) converts on stimulation GTP into cGMP and pyrophosphate (PPi). PPi is detected with the aid of the assay described below. The signal produced in the assay increases as the reaction progresses and serves as a measure of the sGC enzyme activity under the given stimulation.
To carry out the assay, 29 μl of enzyme solution [0-10 nM soluble guanylate cyclase (prepared according to Honicka et al., J. Mol. Med. 77, 14-23 (1999)) in 50 mM TEA, 2 mM MgCl2, 0.1% BSA (fraction V), 0.005% Brij®, pH 7.5] are initially introduced into a microplate, and 1 μl of the substance to be tested (as a serially diluted solution in DMSO) is added. The mixture is incubated at room temperature for 10 min. Then 20 μl of detection mix [1.2 nM Firefly Luciferase (Photinus pyralis luciferase, Promega), 29 μM dehydroluciferin (prepared according to Bitler & McElroy, Arch. Biochem. Biophys. 72, 358 (1957)), 122 μM luciferin (Promega), 153 μM ATP (Sigma) and 0.4 mM DTT (Sigma) in 50 mM TEA, 2 mM MgCl2, 0.1% BSA (fraction V), 0.005% Brij®, pH 7.5] are added. The enzyme reaction is started by adding 20 μl of substrate solution [1.25 mM guanosine 5′-triphosphate (Sigma) in 50 mM TEA, 2 mM MgCl2, 0.1% BSA (fraction V), 0.005% Brij®, pH 7.5] and measured continuously in a luminometer. The extent of the stimulation by the substance to be tested can be determined relative to the signal of the unstimulated reaction.
The activation of heme-free guanylate cyclase is examined by addition of 25 μM of 1H-1,2,4-oxadiazolo[4,3-a]quinoxalin-1-one (ODQ) to the enzyme solution and subsequent incubation for 30 minutes and compared to the stimulation of the native enzyme.

saphenous artery rings = assay: Vasorelaxant effect in vitro (phenylephrine-contracted artery rings); parameters: species or system Rabbits; details: concentration reducing phenylephrine-induced contraction by 50%
Experimental: Rabbits are anesthetized and sacrificed by intravenous injection of thiopental sodium (about 50 mg/kg) and exsanguinated. The saphenous artery is removed and divided into rings 3 mm wide. The rings are mounted singly on in each case a pair of triangular hooks open at the end and made of 0.3 mm-thick special wire (Remanium®). Each ring is placed under an initial tension in 5 ml organ baths with Krebs-Henseleit solution which is at 37° C., is gassed with carbogen and has the following composition: NaCl 119 mM; KCl 4.8 mM; CaCl2×2H2O 1 mM; MgSO4×7H2O 1.4 mM; KH2PO4 1.2 mM; NaHCO3 25 mM; glucose 10 mM; bovine serum albumin 0.001%. The force of contraction is detected with Statham UC2 cells, amplified and digitized via A/D converters (DAS-1802 HC, Keithley Instruments, Munich) and recorded in parallel on chart recorders. Contractions are induced by addition of phenylephrine.
After several (generally 4) control cycles, the substance to be investigated is added in each further run in increasing dosage, and the level of the contraction achieved under the influence of the test substance is compared with the level of the contraction reached in the last preceding run. The concentration necessary to reduce the contraction reached in the preceding control by 50% is calculated from this (IC50). The standard application volume is 5 μl. The proportion of DMSO in the bath solution corresponds to 0.1%.

[2] = molecular target: T2, recombinant guanylate cyclase reporter cell line (Rattus norvegicus, UniProt P20595); assay: sGC-activating activity in the CHO reporter cell in vitro; format: cell-based
T2 construct: expressed in transfected cells; host or cells: CHO reporter cell line
T2 sequence (P20595 1-619): T1 sequence (P20595 1-619)
T2 sequence (P19686 1-690 partner): T1 sequence (P19686 1-690 partner)
Experimental: The cellular action of the compounds according to the invention is determined at a recombinant guanylate cyclase reporter cell line, as described in F. Wunder et al., Anal. Biochem. 339, 104-112 (2005).

MEC (minimum effective concentration), activating action at the sGC enzyme [1] [nM] | EC50 [1] [nM] | IC50 (saphenous artery rings; Oryctolagus cuniculus) [nM] | MEC (minimum effective concentration), sGC-activating activity in the CHO reporter cell [2] [nM] | IC50 (saphenous artery rings) [nM] | SMILES
4.1 | 130 | 110 | 3 | – | CC1(C(=O)O)Cc2cccc(NC(=O)C(c3ccc(CN4N=C(c5ccccc5)OCC4=O)cc3)C3CCCC3)c2C1 (single isomer, unassigned) [Example 46, 4-[(Cyclopentyl{4-[(5-oxo-2-phenyl-5,6-dihydro-4H-1,3,4-oxadiazin-4-yl)methyl]phenyl}-acetyl)amino]-2-methyl-2,3-dihydro-1H-indene-2-carboxylic acid]
0.4 | 24 | 625 | 1 | – | CCC(C)C(C(=O)Nc1cccc(CCC(=O)O)c1C)c1ccc(CN2N=C(c3ccccc3)OCC2=O)cc1 (single isomer, unassigned) [Example 77, 3-{2-Methyl-3-[(3-methyl-2-{4-[(5-oxo-2-phenyl-5,6-dihydro-4H-1,3,4-oxadiazin-4-yl)methyl]phenyl}pentanoyl)amino]phenyl}propanoic acid]
1.4 | 73 | 180 | 1 | – | CCC(C)C(C(=O)Nc1cccc2c1CC(C)(C(=O)O)C2)c1ccc(CN2N=C(c3ccccc3)OCC2=O)cc1 (single isomer, unassigned) [Example 86, 2-Methyl-4-[(3-methyl-2-{4-[(5-oxo-2-phenyl-5,6-dihydro-4H-1,3,4-oxadiazin-4-yl)methyl]-phenyl}pentanoyl)amino]-2,3-dihydro-1H-indene-2-carboxylic acid]
1.6 | 40 | 163 | 3 | – | Cc1c(CCC(=O)O)cccc1NC(=O)C(c1ccc(CN2N=C(c3ccccc3)OCC2=O)cc1)C1CCCC1 (single isomer, unassigned) [Example 115, 3-{3-[(cyclopcntyl{4-[(5-oxo-2-phcnyl-5,6-dihydro-4H-1,3,4-oxadiazin-4-yl)mcthyl]phcnyl}acetyl)amino]-2-mcthylphcnyl}propanoic acid]
10 | 320 | 145 | 30 | – | O=C(O)C1Cc2cccc(NC(=O)C(c3ccc(CN4N=C(c5ccccc5)OCC4=O)cc3)C3CCCC3)c2C1 (single isomer, unassigned) [Example 126, 4-[(cyclopcntyl{4-[(5-oxo-2-phcnyl-5,6-dihydro-4H-1,3,4-oxadiazin-4-yl)mcthyl]phcnyl}acetyl)amino]-2,3-dihydro-1H-indenc-2-carboxylic acid]
5.1 | 330 | 52 | 10 | – | CC(C)(Cc1cccc(NC(=O)C(c2ccc(Cn3nc(-c4ccccc4)ccc3=O)cc2)C2CCCC2)c1)C(=O)O (single isomer, unassigned) [Example 138, 3-{3-[(cyclopentyl{4-[(6-oxo-3-phenylpyridazin-1(6H)-yl)methyl]phenyl}acetyl)amino]phenyl}-2,2-dimethylpropanoic acid]
0.5 | 6.1 | – | 0.3 | 26 | CC(C(C(=O)Nc1cccc(CC2(C(=O)O)CC2)c1)c1ccc(CN2N=C(c3ccccc3)OCC2=O)cc1)C(F)(F)F (single isomer, unassigned) [Example 164, 1-{3-[(4,4,4-trifluoro-3-methyl-2-{4-[(5-oxo-2-phenyl-5,6-dihydro-4H-1,3,4-oxadiazin-4-yl)methyl]phenyl}-butanoyl)amino]benzyl}cyclopropanecarboxylic acid]
0.4 | 2.4 | – | 0.3 | 4.9 | CC(C(C(=O)Nc1cccc(CC2(C(=O)O)CC2)c1)c1ccc(CN2N=C(c3ccccc3)OCC2=O)cc1)C(F)(F)F (single isomer, unassigned) [Example 166, 1-{3-[(4,4,4-trifluoro-3-methyl-2-{4-[(5-oxo-2-phenyl-5,6-dihydro-4H-1,3,4-oxadiazin-4-yl)methyl]phenyl}-butanoyl)amino]benzyl}cyclopropanecarboxylic acid]
2.5 | 30 | 356 | 3 | – | CC(C(C(=O)Nc1cccc(CCC(=O)O)c1)c1ccc(CN2N=C(c3ccccc3)OCC2=O)cc1)C(F)(F)F (single isomer, unassigned) [Example 192, 3-{3-[(4,4,4-Trifluoro-3-methyl-2-{4-[(5-oxo-2-phenyl-5,6-dihydro-4H-1,3,4-oxadiazin-4-yl)methyl]phenyl}butanoyl)amino]phenyl}propanoic acid]
– | – | 64 | 0.3 | – | CC(C(C(=O)Nc1cc(CCC(=O)O)ccc1F)c1ccc(CN2N=C(c3ccccc3)OCC2=O)cc1)C(F)(F)F (centres unmarked) [Example 185, 3-{4-fluoro-3-[(4,4,4-trifluoro-3-methyl-2-{4-[(5-oxo-2-phenyl-5,6-dihydro-4H-1,3,4-oxadiazin-4-yl)methyl]-phenyl}butanoyl)amino]phenyl}propanoic acid]
